Test results: patent publication US20020123471A1, “LENTIVIRUS BASED VECTOR AND VECTOR SYSTEM” (priority 1997, published 2002)

Tested on: SIV[SIV] or SIV[MLV] vector particles
Test: Inhibition of retroviral transfer of V1-luc into CEMx174 cells by reverse transcriptase inhibitor
Assay type: cell-based
Settings: Simian immunodeficiency virus, CEMx174, read-out: transfer of V1-luc inhibited

**Q.** How did the inhibition at 10 µM turn out when `Cc1cn([C@H]2C[C@H](N=[N+]=[N-])[C@@H](CO)O2)c(=O)[nH]c1=O` [Zidovudine, 3′-azido-2′,3′-dideoxythymidine] was run?
**A.** 90%
